Assay results: ChEMBL document CHEMBL1201862, “PubChem BioAssay data set” (2004)
Active and inactive are the calls of the source.

What was measured:
[1] = target: DNA (cytosine-5)-methyltransferase 1 (Homo sapiens, UniProt P26358); experiment: inhibition of DNA methylation by DNMT1 – biochemical, fluorescent molecular beacon, confirmation (AID 602386); assay type: functional
[2] = NIH3T3 cell viability loss – ATP luminescence, mouse fibroblasts, counter-screen, dose response (AID 2010); assay type: functional, cell-based;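 further: cells exposed to compound for about 90 hours before reading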
cells [3] = assay type: functional
[4] = non-specific 3'UTR reporter inhibition in Clone20-Shn3RL – cell-based, Renilla luciferase, cherry-picked, counter-screen for Shn3 inhibitor project, dose response (AID 624133); assay type: functional
[5] = THP-1 cell cytotoxicity, dose response, cytotoxicity control for non-replicating M. tuberculosis project (AID 489025); assay type: functional
[6] = target: T1, Replicative DNA helicase DnaB (Mycobacterium tuberculosis, UniProt P9WMR3); experiment: DnaB intein splicing inhibitors, dose response, biochemical, cell-free fluorescence (AID 449749); assay type: functional
T1 sequence (P9WMR3 whole entry): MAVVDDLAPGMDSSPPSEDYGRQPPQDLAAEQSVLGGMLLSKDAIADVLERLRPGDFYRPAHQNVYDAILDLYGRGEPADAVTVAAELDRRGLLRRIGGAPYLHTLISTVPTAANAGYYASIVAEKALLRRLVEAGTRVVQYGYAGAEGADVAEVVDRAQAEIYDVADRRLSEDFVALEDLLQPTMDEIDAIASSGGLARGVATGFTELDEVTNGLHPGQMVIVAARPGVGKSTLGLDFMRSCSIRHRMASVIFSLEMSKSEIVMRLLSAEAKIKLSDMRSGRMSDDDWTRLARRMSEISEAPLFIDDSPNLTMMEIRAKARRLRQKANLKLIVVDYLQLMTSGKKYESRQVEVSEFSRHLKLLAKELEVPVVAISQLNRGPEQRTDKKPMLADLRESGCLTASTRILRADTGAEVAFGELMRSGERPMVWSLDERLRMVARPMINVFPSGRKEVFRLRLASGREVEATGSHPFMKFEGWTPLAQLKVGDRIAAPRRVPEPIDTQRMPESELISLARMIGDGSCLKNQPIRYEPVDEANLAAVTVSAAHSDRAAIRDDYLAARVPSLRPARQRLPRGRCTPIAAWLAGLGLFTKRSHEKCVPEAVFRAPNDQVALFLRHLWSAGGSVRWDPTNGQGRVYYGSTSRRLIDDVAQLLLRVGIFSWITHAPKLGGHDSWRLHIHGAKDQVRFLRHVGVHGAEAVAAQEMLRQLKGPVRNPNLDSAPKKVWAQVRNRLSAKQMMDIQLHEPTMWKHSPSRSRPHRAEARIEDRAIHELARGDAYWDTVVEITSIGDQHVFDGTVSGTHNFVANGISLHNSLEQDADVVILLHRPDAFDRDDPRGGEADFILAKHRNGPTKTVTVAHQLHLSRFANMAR

[7] = loss of viability in HepG2 cells – cell-based, CellTiter-Glo, cherry-picked, cytotoxicity control for Shn3 inhibitor project, dose response (AID 624134); assay type: functional
[8] = Trypanosoma cruzi growth suppression in host cells – NIH3T3 host cells, beta-gal luminescence, confirmation (AID 2044); assay type: functional, cell-based;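 further: intracellular parasites grown in NIH/3T3 mouse fibroblasts as host cells; luminescent beta-galactosidase reporter signal from transgenic T. cruzi replicating inside host cells; inhibitors lower the luminescence signal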
Protein RecA = target: T2, Protein RecA (Mycobacterium tuberculosis, UniProt P9WHJ3); experiment: Fluorescence Cell-Free Homogeneous Dose Retest to Identify Inhibitors of RecA-Intein Splicing Activity. [Related pubchem assays (depositor defined):AID2097, AID2223, AID489010, AID492950]; assay type: functional
T2 sequence (P9WHJ3 whole entry): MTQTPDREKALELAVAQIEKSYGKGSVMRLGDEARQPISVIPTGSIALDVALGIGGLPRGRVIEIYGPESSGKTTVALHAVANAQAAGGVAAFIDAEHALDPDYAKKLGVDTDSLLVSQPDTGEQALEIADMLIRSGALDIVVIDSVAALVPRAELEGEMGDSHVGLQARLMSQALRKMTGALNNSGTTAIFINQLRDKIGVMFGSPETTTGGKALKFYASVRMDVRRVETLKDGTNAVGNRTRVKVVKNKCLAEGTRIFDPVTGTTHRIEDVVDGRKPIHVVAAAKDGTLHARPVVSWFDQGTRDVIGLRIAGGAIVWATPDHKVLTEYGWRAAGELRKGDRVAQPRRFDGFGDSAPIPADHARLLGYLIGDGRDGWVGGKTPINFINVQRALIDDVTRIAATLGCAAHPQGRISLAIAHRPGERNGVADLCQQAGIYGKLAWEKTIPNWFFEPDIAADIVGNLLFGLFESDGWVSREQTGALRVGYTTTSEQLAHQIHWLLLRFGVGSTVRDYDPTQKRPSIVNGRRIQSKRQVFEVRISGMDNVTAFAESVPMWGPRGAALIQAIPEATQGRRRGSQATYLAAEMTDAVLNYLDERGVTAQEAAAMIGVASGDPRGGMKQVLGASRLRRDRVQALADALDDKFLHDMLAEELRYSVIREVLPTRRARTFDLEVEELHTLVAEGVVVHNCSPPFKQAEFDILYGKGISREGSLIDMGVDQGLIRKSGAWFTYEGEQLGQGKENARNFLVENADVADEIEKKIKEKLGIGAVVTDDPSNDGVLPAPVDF

Genome polyprotein = Genome polyprotein (dengue virus type 2, UniProt P29990); experiment: flavivirus cap methylation enzyme inhibition – biochemical, confirmation dose response, primary screen (AID 588689); assay type: functional
[9] = reduction of Shn3 3'UTR-driven luciferase in osteoblasts – cell-based, Clone20 osteoblasts, firefly luciferase, cherry-picked, dose response (AID 624132); assay type: functional;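 further: firefly luciferase luminescence from reporter carrying the Shn3 3'UTR in osteoblasts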
NS3 = NS3 (Hepatitis C virus, UniProt A3EZJ3); experiment: PubChem AID 2173; design: species or system Hepacivirus hominis
Beta-galactosidase = Beta-galactosidase (Escherichia coli, UniProt Q8VNN2); experiment: detection-enzyme interference by beta-gal modulators – biochemical, E. coli enzyme, set 3, artefact control for CCR6 antagonist project, dose response (AID 504712); assay type: functional
[10] = target: Heat shock protein HSP 90-alpha (Homo sapiens, UniProt P07900); assay type: functional, organism-based
HEK293 [11] = experiment: Fluorescence-based counterscreen for potentiators or agonists of NPY-Y2: cell-based high-throughput dose response assay to identify inhibitors of cyclic nucleotide gated ion channel (CNGC) activity. In this assay, the parental HEK293 cell line transfected with a cyclic-nucleotide gated ion channel (CNGC)-based cAMP sensor is used to measure inhibition of isoproterenol-induced CNGC activity by test compound.; assay type: functional; conditions: Homo sapiens
HEK293 [12] = experiment: EBV LMP1 TES2 canonical NF-kB signalling blockers – cell-based, HEK293, luciferase, cherry-pick, dose response (AID 588343); assay type: functional; conditions: Homo sapiens
[13] = Counterscreen for AddAB inhibitors: absorbance-based bacterial cell-based high throughput dose response assay for inhibitors of bacterial viability. [Related pubchem assays (depositor defined):AID435030, AID449728, AID449731, AID488942, AID488955, AID488956]; assay type: functional
cells [14] = experiment: cells
HEK293 [15] = experiment: cells; assay type: functional, cell-based; conditions: Homo sapiens
[16] = HepG2 cell cytotoxicity, dose response, cytotoxicity control for non-replicating M. tuberculosis project (AID 489018); assay type: functional; conditions: Mycobacterium tuberculosis

Chain of Genome polyprotein (P29990 2492-3391 limits assumed): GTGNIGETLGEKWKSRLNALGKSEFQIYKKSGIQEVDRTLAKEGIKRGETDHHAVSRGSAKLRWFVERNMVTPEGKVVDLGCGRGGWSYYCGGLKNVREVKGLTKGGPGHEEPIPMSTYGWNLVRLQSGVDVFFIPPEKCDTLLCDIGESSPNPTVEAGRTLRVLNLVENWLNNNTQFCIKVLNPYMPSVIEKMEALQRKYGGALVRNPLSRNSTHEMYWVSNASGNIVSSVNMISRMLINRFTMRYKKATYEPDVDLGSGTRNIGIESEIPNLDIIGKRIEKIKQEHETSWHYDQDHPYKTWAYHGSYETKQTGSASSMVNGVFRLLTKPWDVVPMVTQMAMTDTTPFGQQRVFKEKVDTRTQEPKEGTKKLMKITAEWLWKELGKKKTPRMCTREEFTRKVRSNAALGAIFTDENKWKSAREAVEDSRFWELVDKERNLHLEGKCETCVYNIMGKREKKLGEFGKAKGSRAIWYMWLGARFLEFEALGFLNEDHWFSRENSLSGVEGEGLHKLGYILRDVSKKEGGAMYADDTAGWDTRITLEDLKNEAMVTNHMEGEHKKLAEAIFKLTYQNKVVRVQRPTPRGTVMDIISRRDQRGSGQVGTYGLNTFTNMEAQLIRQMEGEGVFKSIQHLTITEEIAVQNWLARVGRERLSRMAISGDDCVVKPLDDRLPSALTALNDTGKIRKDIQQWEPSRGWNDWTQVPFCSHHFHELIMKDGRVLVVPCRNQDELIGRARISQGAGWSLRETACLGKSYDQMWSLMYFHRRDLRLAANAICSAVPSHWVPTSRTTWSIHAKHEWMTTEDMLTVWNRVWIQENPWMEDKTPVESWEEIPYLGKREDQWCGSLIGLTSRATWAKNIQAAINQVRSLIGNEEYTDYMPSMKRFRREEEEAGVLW
Chain of Beta-galactosidase (Q8VNN2 whole entry): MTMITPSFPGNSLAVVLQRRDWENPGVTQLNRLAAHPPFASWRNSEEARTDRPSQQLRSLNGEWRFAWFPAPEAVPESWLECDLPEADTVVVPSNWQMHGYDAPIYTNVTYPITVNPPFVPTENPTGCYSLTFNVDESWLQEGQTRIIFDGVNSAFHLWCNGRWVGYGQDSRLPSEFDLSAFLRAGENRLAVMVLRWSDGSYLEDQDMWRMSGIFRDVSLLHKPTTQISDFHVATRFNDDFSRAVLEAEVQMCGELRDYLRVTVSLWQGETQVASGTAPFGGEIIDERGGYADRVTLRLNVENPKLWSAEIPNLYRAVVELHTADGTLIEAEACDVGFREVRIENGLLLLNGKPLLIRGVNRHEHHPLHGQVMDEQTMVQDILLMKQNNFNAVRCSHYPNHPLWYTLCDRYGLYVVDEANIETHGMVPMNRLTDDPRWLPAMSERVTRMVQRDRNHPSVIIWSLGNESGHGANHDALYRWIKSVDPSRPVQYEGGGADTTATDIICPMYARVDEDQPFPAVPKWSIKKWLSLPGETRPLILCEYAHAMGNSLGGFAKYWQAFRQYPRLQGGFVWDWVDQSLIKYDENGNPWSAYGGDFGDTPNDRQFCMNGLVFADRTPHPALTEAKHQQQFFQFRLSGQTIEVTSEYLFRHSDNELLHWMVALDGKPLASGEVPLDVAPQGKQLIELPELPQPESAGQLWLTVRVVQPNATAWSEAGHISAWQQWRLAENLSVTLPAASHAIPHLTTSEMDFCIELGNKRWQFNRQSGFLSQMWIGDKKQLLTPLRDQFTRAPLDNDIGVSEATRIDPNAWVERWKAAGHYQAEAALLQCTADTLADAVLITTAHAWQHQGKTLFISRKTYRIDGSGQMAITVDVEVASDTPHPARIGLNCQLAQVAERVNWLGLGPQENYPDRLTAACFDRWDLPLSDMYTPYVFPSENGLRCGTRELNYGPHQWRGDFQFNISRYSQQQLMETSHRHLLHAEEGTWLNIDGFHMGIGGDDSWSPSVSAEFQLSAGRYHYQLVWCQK
Chain of DNA (cytosine-5)-methyltransferase 1 (P26358 whole entry): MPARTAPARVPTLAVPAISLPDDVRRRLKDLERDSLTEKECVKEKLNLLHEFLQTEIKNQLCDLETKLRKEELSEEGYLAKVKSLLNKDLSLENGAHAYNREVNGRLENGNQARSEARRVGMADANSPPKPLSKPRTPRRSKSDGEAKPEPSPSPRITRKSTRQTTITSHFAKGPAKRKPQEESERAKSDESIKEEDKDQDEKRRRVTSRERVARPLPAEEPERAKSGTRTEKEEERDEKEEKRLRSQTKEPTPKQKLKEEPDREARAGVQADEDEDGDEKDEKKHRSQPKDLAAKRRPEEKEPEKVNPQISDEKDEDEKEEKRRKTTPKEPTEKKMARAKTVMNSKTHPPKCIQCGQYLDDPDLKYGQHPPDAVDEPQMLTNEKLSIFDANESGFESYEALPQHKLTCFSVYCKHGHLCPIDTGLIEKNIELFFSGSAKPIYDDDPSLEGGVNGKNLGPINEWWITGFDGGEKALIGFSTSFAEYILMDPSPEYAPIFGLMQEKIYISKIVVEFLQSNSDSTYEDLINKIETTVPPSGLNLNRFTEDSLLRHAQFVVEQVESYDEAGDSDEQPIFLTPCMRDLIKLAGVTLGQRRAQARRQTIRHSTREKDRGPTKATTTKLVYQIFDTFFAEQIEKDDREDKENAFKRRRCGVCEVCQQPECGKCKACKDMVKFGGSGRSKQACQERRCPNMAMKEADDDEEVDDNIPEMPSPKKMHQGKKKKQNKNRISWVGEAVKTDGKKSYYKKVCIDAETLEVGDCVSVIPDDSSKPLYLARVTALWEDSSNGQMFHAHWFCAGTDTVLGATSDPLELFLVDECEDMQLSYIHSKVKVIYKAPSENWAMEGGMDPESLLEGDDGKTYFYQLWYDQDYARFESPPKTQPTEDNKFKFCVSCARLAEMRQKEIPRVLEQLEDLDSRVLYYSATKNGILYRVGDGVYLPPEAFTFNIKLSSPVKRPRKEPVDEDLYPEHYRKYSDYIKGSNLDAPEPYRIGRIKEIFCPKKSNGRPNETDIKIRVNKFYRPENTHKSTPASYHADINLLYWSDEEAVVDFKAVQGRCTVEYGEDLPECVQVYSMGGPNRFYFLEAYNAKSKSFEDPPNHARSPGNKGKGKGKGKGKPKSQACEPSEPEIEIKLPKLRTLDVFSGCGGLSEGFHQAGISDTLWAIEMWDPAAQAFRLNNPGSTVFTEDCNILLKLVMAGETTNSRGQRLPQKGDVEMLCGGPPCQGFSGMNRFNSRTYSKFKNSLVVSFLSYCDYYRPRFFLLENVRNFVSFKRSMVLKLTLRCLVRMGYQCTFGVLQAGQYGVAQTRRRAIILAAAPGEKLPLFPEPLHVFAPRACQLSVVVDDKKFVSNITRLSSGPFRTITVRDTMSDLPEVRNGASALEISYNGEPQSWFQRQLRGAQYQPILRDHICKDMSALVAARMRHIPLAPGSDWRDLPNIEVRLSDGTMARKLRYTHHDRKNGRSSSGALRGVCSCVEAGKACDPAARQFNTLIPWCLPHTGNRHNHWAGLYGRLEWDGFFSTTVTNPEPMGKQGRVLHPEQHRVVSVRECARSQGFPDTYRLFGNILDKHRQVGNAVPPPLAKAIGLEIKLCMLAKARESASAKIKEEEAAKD
Chain of NS3 (A3EZJ3 whole entry): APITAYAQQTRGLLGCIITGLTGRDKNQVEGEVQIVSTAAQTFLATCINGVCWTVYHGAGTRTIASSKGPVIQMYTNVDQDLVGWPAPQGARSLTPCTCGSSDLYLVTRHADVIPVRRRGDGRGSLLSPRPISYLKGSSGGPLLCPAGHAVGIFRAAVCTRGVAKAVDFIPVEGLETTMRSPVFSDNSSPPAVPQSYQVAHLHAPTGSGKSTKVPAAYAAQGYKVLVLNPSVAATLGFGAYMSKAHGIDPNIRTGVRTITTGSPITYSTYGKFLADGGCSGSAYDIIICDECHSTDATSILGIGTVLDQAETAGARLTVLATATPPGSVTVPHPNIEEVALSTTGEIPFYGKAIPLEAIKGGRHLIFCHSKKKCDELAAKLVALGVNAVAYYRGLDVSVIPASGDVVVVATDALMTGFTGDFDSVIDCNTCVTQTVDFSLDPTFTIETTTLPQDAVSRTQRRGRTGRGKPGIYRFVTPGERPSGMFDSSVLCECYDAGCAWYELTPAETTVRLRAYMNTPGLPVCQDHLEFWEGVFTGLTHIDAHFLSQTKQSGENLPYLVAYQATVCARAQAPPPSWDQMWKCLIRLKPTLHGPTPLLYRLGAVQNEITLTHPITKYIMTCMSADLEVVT

In the case of `O=C1NC(=S)N/C1=C/c1cc2c(cc1[N+](=O)[O-])OCO2`, the IC50 [1] is reported as 3.85 µM (active).
With `Cc1ccc(NC(=O)C2=C(c3ccccc3)S(=O)(=O)CCS2(=O)=O)cc1` the EC50 [2] was 2.48 µM (active), the IC50 (cells [3]) was 38.3 µM (active) and the AC50 [4] was 4.49 µM (active). The CC50 [5] was 19.4 µM (active), the AC50 [6] was 2.18 µM (active) and the AC50 [7] was 12.5 µM (active). For the same compound, the EC50 [8] was 1.97 µM (active), the EC50 (Protein RecA) was 1.01 µM (active) and the IC50 (Genome polyprotein) was > 100 µM (active). The AC50 [9] was 558 nM (active), the IC50 (NS3) was 9.23 µM (active) and the IC50 (Beta-galactosidase) was > 66.6 µM (inactive).
With `O=C(O)CSc1cc(NS(=O)(=O)c2ccc(Br)cc2)c2ccccc2c1O` the AC50 [6] was 0.883 µM (active), the EC50 (Protein RecA) was 0.244 µM (active) and the IC50 (Genome polyprotein) was 7.66 µM (active).
With `O=C(CC(O)(C(F)(F)F)C(F)(F)F)Nc1ccc(Cl)c(Cl)c1` the AC50 [4] was 5.67 µM (active), the AC50 [10] was 16.8 µM (active) and the EC50 (HEK293 [11]) was > 35.4 µM (not active). For the same compound, the AC50 (HEK293 [12]) was 1.34 µM (active), the IC50 [13] was 39 µM (inactive) and the AC50 [7] was 3.7 µM (active). The AC50 [9] was 4970 nM (active).
For `O=C(CNc1cccc2ccccc12)N/N=C/c1ccc([N+](=O)[O-])o1`, the EC50 (cells [14]) was 64 nM (active), the EC50 [2] was > 60 µM (not active) and the IC50 (cells [3]) was 3.24 µM (active). The CC50 [5] was 16.8 µM (active), the IC50 (HEK293 [15]) was > 20 µM (inactive) and the IC50 [13] was > 118 µM (inactive). For the same compound, the EC50 [8] was < 0.1 µM (active) and the CC50 [16] was 17.5 µM (active).
